pIC50: −log10 of the molar value. Where two headings read alike, the source gives them in different places. Peptide text beside a SMILES is read from it. * marks the point of attachment. Hydrocinnamoyl = O=C(CCc1ccccc1)*
Columns and labels:
human α-thrombin = human α-thrombin (Homo sapiens, UniProt P00734); experiment: Thrombin assay, chromogenic substrate Pefachrome t-PA; format: biochemical; settings: purified human enzyme 0.25 nM, 30 minute incubation, substrate 300 μM, HBSA pH 7.5
Procedure: (§1) The buffer used for all assays was HBSA (10 mM HEPES, pH 7.5, 150 mM sodium chloride, 0.1% bovine serum albumin). […] Following a 30 minute incubation at ambient temperature, 50 μL of the substrate at the concentrations specified below, was added to the wells yielding a final total volume of 200 μL.
Thrombin catalytic activity was determined using the chromogenic substrate Pefachrome t-PA (CH3 SO2 -D-hexahydrotyrosine-glycyl-L-arginine-p-nitroaniline, obtained from Pentapharm Ltd.).

Human factor Xa = molecular target: T1, Human factor Xa (Homo sapiens, UniProt P00742); experiment: Factor Xa assay, chromogenic substrate S2765; format: biochemical; settings: purified human enzyme 0.5 nM, 30 minute incubation, substrate 250 μM, HBSA pH 7.5
T1 construct: Human factor Xa was prepared from purified human factor X obtained from Enzyme Research Laboratories; purchased Enzyme Research Laboratories
T1 sequence (P00742 235-488 limits assumed): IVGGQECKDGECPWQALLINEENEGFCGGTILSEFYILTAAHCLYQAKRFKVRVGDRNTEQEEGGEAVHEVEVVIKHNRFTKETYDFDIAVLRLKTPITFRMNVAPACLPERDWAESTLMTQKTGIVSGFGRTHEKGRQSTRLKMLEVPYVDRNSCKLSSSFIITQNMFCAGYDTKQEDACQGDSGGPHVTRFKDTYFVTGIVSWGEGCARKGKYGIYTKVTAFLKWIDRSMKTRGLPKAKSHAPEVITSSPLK
T1 sequence (P00742 41-179 partner limits assumed): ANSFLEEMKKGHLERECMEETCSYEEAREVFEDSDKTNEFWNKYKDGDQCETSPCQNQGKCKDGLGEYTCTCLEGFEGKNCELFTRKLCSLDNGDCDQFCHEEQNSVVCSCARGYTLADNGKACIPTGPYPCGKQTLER
Procedure: as §1, with “μL. The initial velocity of chromogenic substrate hydrolysis was measured by the change in absorbance at 405 nm using a Thermo Max® Kinetic Microplate Reader over a 5 minute period in which less than 5% of the added substrate was utilized.” for “μL.”
Factor Xa catalytic activity was determined using the substrate, S2765 (N-α-benzyloxycarbonyl-D-argininyl-L-glycyl-L-arginine-p-nitroanilide dihydrochloride) which was obtained from Kabi Diagnostica. […] Human factor Xa was prepared from purified human factor X obtained from Enzyme Research Laboratories according to the method described by Bock, P. E. et al., Archives of Biochem. Biophys. 273: 375 (1989). The enzyme was diluted into HBSA prior to the assay in which the final concentration was 0.5 nM.

[1] = tested on: FeCl3-induced platelet-dependent arterial thrombosis; format: in vivo, rat; settings: for Clot Size: mean ± S.E.M.
Source text: Res., 60: 269-280 (1990). […] Res., 60: 269-280 (1990). […] The animals were then euthanized.

human plasmin = human plasmin (Homo sapiens, UniProt P00747); experiment: Plasmin assay, chromogenic substrate S-2251; format: biochemical; settings: purified human enzyme 1.0 nM, 30 minute incubation, substrate 300 μM, HBSA pH 7.5
Chain of human plasmin (P00747 581-810 limits assumed): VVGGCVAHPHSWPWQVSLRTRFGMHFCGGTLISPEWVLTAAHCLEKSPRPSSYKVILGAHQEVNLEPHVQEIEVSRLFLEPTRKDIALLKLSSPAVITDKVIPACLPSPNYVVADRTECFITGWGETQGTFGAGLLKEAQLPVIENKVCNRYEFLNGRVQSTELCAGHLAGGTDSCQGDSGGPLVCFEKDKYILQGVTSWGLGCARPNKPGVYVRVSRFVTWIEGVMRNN
Chain of human plasmin (P00747 97-580 partner limits assumed): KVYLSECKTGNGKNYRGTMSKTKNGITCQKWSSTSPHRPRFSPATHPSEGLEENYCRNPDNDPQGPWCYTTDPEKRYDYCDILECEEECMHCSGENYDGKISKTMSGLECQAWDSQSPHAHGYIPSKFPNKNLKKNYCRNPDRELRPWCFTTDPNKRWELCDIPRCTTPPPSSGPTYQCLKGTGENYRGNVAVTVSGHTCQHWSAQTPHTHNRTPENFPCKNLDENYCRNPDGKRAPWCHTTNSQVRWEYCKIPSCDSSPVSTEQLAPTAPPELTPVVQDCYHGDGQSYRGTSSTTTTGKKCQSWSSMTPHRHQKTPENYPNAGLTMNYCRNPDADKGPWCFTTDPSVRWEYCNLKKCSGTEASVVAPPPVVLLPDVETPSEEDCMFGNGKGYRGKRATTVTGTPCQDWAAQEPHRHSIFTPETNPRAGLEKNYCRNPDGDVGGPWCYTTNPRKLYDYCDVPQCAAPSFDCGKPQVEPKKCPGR

Compound	pIC50 (human α-thrombin)	pIC50 (Human factor Xa)	pIC50 (human plasmin)	Clot Size ([1]; Group 1, 25 μg/kg/min i.v. infusion)	Clot Size ([1]; Group 2, 50 μg/kg/min i.v. infusion)	Clot Size ([1]; Group 3, 100 μg/kg/min i.v. infusion)	Efficacy as an antithrombotic agent (in words) ([1]; rat FeCl3 model, i.v. infusion)
CCCC(CCC)C(=O)N[C@@H](CC(=O)O)C(=O)N1CCC[C@H]1C(=O)N[C@H](C=O)CCCNC(=N)N [2PrPent-Asp-Pro-Arg-al, N-(2-propylpentanoyl)-L-aspartyl-L-prolyl-L-argininal]	8.21	6.62					
N=C(N)NCCC[C@@H](C=O)NC(=O)[C@@H]1CCCN1C(=O)[C@H](CC(=O)O)NC(=O)CCC1CCCCC1 [ChxPA-Asp-Pro-Arg-al, N-(3-cyclohexanepropionyl)-L-aspartyl-L-prolyl-L-argininal]	7.39	7.62					
CC(C)CCC(=O)NC(Cc1nnn[nH]1)C(=O)N1CCC[C@H]1C(=O)N[C@H](C=O)CCCNC(=N)N (stereo partly drawn) [4MeV-Ala(Tzl)-Pro-Arg-al, 3-tetrazolyl-2-(4-methylvaleroylamido) propionyl-L-prolyl-L-argininal]			6.30				

More lines, in order of rising pIC50 (human α-thrombin), values ahead:

pIC50 (human α-thrombin)	pIC50 (Human factor Xa)	pIC50 (human plasmin)	Compound	Clot Size ([1]; Group 1, 25 μg/kg/min i.v. infusion)	Clot Size ([1]; Group 2, 50 μg/kg/min i.v. infusion)	Clot Size ([1]; Group 3, 100 μg/kg/min i.v. infusion)	Efficacy as an antithrombotic agent (in words) ([1]; rat FeCl3 model, i.v. infusion)
6.86	7.13		CC(C)CCC(=O)N[C@@H](CC(=O)O)C(=O)N1CCC[C@H]1C(=O)N[C@H](C=O)CCCNC(=N)N [4MeV-Asp-Pro-Arg-al, N-(4-methylpentanoyl)-L-aspartyl-L-prolyl-L-argininal]				
7.04	7.28		N=C(N)NCCC[C@@H](C=O)NC(=O)[C@@H]1CCCN1C(=O)[C@H](CC(=O)O)NC(=O)CCc1ccccc1 [HCA-Asp-Pro-Arg-al, N-(3-phenylpropionyl)-L-aspartyl-L-prolyl-L-argininal] (Hydrocinnamoyl-Asp-Pro-Arg-aldehyde)	48.38 ± 24.71%	22.38 ± 21.0%	3.38 ± 5.44%	reduction in the incidence of occlusion and in clot size
